In PubChem BioAssay (NCI):
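Values below derive from 48-hour exposures of cells grown in 96-well plates, with endpoints linearly interpolated between the two concentrations bracketing the appropriate inhibition level. GI50 is the concentration that inhibits growth by half. TGI marks complete inhibition of growth.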

Experiments:
Test in all cases: growth of human tumour cells (NCI), 48 h
MDA-MB-231 breast = tested on: MDA-MB-231 breast
RPMI-8226 leukemia = tested on: RPMI-8226 leukemia
SK-MEL-28 melanoma = tested on: SK-MEL-28 melanoma
UO-31 renal = tested on: UO-31 renal
HOP-62 NSCLC = tested on: HOP-62 NSCLC
OVCAR-3 ovarian = tested on: OVCAR-3 ovarian
K-562 leukemia = tested on: K-562 leukemia
MDA-MB-435 = tested on: MDA-MB-435
MALME-3M melanoma = tested on: MALME-3M melanoma
SF-268 CNS = tested on: SF-268 CNS

SMILES | TGI (MDA-MB-231 breast) | TGI (RPMI-8226 leukemia) | TGI (SK-MEL-28 melanoma) | TGI (UO-31 renal) | TGI (HOP-62 NSCLC) | TGI (OVCAR-3 ovarian) | TGI (K-562 leukemia) | TGI (MDA-MB-435) | TGI (MALME-3M melanoma) | TGI (SF-268 CNS) | GI50 (MALME-3M melanoma) | GI50 (RPMI-8226 leukemia) | GI50 (SF-268 CNS) | GI50 (SK-MEL-28 melanoma) | GI50 (UO-31 renal) | GI50 (HOP-62 NSCLC) | GI50 (OVCAR-3 ovarian) | GI50 (K-562 leukemia)
CCc1ccccc1NNc1cc(=O)[nH]c(=O)[nH]1 | 32.3 µM | > 100 µM | 38 µM | 31.1 µM | 35.1 µM | 30.8 µM | > 100 µM | 34.1 µM | – | – | – | – | – | – | – | – | – | –
C=CCOCn1cc(C)c(=O)[nH]c1=O | > 100 µM | > 100 µM | > 100 µM | > 100 µM | > 100 µM | – | > 100 µM | > 100 µM | > 100 µM | > 100 µM | – | – | – | – | – | – | – | –
O=C(OCC(Cl)(Cl)Cl)O[C@@H]1CCCC1(c1ccccc1)c1ccccc1 | > 100 µM | – | > 100 µM | > 100 µM | > 100 µM | – | > 100 µM | > 100 µM | – | > 100 µM | – | – | – | – | – | – | – | –
Cc1cc(=O)[nH]c(NN2C(Cl)C(=O)C2c2cccc(Cl)c2)n1 (stereo not given) | – | 34.8 µM | > 100 µM | 87.6 µM | > 100 µM | 51.1 µM | 65.8 µM | – | – | 98.1 µM | – | – | – | – | – | – | – | –
O=C(NNc1nc(-c2ccccc2)cs1)C(F)(F)F | > 100 µM | 47 µM | 88.8 µM | 31.6 µM | > 100 µM | – | 93.5 µM | > 100 µM | > 100 µM | > 100 µM | – | – | – | – | – | – | – | –
CCOC(=O)N(c1ccccc1)N(CC)C(=O)/C(C)=N/Nc1ccc([N+](=O)[O-])cc1 | – | 58 µM | 31.1 µM | 29.5 µM | 30 µM | 31.1 µM | 38.1 µM | – | 33.5 µM | 34.1 µM | – | – | – | – | – | – | – | –
COc1cc2nc(-c3cccs3)[nH]c(=O)c2cc1OC | > 100 µM | > 100 µM | > 100 µM | > 100 µM | > 100 µM | > 100 µM | > 100 µM | > 100 µM | > 100 µM | > 100 µM | – | – | – | – | – | – | – | –
Cc1ccc(NC(=O)C(=O)CC(=O)c2sc(Nc3c(C)cccc3C)nc2C)cc1C | > 100 µM | > 100 µM | > 100 µM | > 100 µM | > 100 µM | > 100 µM | > 100 µM | > 100 µM | – | > 100 µM | – | – | – | – | – | – | – | –
N#C/C(=C/NC(=S)c1ccncc1)C(N)=O | > 100 µM | – | > 100 µM | > 100 µM | > 100 µM | > 100 µM | – | > 100 µM | – | > 100 µM | – | – | – | – | – | – | – | –
O=c1[nH]cnc2c1nnn2CCCCCCCCCCCCn1nnc2c(=O)[nH]cnc21 | – | > 100 µM | > 100 µM | > 100 µM | 54 µM | > 100 µM | > 100 µM | > 100 µM | > 100 µM | 79.9 µM | – | – | – | – | – | – | – | –
COc1ccc(C(C2=C(O)COC2=O)c2cc3c(cc2O)OCO3)cc1OC (stereo not given) | > 100 µM | > 100 µM | > 100 µM | > 100 µM | > 100 µM | > 100 µM | > 100 µM | > 100 µM | > 100 µM | > 100 µM | – | – | – | – | – | – | – | –
S=C(Nc1ccc2cn[nH]c2c1)Nc1ccc2cn[nH]c2c1 | > 100 µM | > 100 µM | > 100 µM | > 100 µM | > 100 µM | > 100 µM | > 100 µM | > 100 µM | > 100 µM | > 100 µM | – | – | – | – | – | – | – | –
CC(C)(C)OC(=O)NCCCCC(NC(=O)c1ccccc1)C(N)=O (stereo not given) | > 100 µM | > 100 µM | > 100 µM | > 100 µM | > 100 µM | > 100 µM | > 100 µM | > 100 µM | > 100 µM | > 100 µM | – | – | – | – | – | – | – | –
CC(C)(C)N(Cc1ccc2c(c1)OCO2)C(=O)/C=C\Sc1ccccc1 | > 100 µM | > 100 µM | > 100 µM | > 100 µM | > 100 µM | > 100 µM | > 100 µM | > 100 µM | – | – | – | – | – | – | – | – | – | –
CCOC(=O)C1=C(C)N(c2ccc(OC)cc2)C2(O)C=CC(=O)C3=C(O)c4ccccc4C(=O)C312 (stereo not given) | 34.8 µM | 10.9 µM | – | 31 µM | 30.1 µM | 11.7 µM | 39.5 µM | 18.7 µM | 1.17 µM | 9.82 µM | – | – | – | – | – | – | – | –
C[Si](C)(c1ccccc1)[C@H]1CCCC=C1CCNC1c2ccccc2CCc2ccccc21 | > 100 µM | > 100 µM | > 100 µM | > 100 µM | > 100 µM | > 100 µM | > 100 µM | > 100 µM | > 100 µM | > 100 µM | – | – | – | – | – | – | – | –
O=C1Nc2ccccc2Nc2ccncc21 | – | > 100 µM | > 100 µM | > 100 µM | > 100 µM | > 100 µM | > 100 µM | – | > 100 µM | > 100 µM | – | – | – | – | – | – | – | –
CC(=O)[CH-]C(=O)c1ccccc1.CC(=O)[CH-]C(=O)c1ccccc1.C[C@]12CCC(=O)C=C1CC[C@@H]1C2CC[C@@]2(C)C1CC[C@]2(C)[O-].C[C@]12CCC(=O)C=C1CC[C@@H]1C2CC[C@@]2(C)C1CC[C@]2(C)[O-].Cl.[Ti+4] (stereo not given in full) | – | > 100 µM | 43 µM | 85.3 µM | 62.7 µM | > 100 µM | > 100 µM | – | 37.1 µM | 75.2 µM | 13.2 µM | 15.4 µM | 20.7 µM | 11.5 µM | 24.2 µM | 24.1 µM | 27.9 µM | 3.76 µM
O=C(CCc1ccccc1)ON1C(=S)C(c2ccccc2)(c2ccccc2)N=C1Sc1ccccc1 | > 100 µM | 74.6 µM | – | > 100 µM | > 100 µM | > 100 µM | > 100 µM | – | > 100 µM | > 100 µM | – | – | – | – | – | – | – | –
O=C1C(CN2CCOCC2)CCCC1CN1CCOCC1 (stereo not given) | 19.8 µM | 2.34 µM | 3.83 µM | 18.9 µM | > 100 µM | 8.21 µM | 6.84 µM | 27.5 µM | 2.04 µM | 43.3 µM | – | – | – | – | – | – | – | –
C[C@@H]1S[C@H](c2c(Cl)cccc2Cl)N2Cc3ccccc3N=C12 | > 100 µM | > 100 µM | > 100 µM | > 100 µM | > 100 µM | > 100 µM | > 100 µM | > 100 µM | – | > 100 µM | – | – | – | – | – | – | – | –
CCN(CC)c1ccc2cc(C(=O)Nc3ccccn3)c(=N)oc2c1 | > 100 µM | > 100 µM | > 100 µM | – | 52.1 µM | > 100 µM | > 100 µM | > 100 µM | > 100 µM | > 100 µM | – | – | – | – | – | – | – | –
